The text below walks through data of patent US20250230161A1, “POLYCYCLIC CAP-DEPENDENT ENDONUCLEASE INHIBITORS FOR TREATING OR PREVENTING INFLUENZA” (Merck Sharp & Dohme LLC, priority 2021, published 2025).

The test system of this test is FLU A (PR/8/34). The test is described as follows: Flu A Neuraminidase Antiviral Assay. The conditions noted are these: MDCK cells infected with FLU A (PR/8/34), 48 h incubation, NA activity by MUNANA fluorescence. It is filed as cell-based.
As to `O=C1c2c(O)c(=O)ccn2N2CN1CCCCC2c1ccccc1` (centres unmarked) [Compound 1], it took 143 nM to reach a half-maximal effect (EC50).
Molecule `O=C1c2c(O)c(=O)ccn2N2CN1CCCCC2c1ccccc1Cl` (centres unmarked) [Compound 2] came in with a concentration for a half-maximal effect (EC50) of 72 nM.
`O=C1c2c(O)c(=O)ccn2N2CN1CCCCC2c1cccc(Cl)c1` (centres unmarked) [Compound 3] registered an EC50 of 133 nM.
Turning to `O=C1c2c(O)c(=O)ccn2N2CN1CCCCC2c1ccc(Cl)cc1` (centres unmarked) [Compound 4], the EC50 stood at 1690 nM.
Regarding `O=C1c2c(O)c(=O)ccn2N2CN1CCCCC2c1ccccc1Br` (centres unmarked) [Compound 5], a half-maximal response (EC50) required 92 nM.
For `O=C1c2c(O)c(=O)ccn2N2CN1CC(F)CCC2c1ccccc1` (centres unmarked) [Compound 9] the value was 578 nM; for `O=C1c2c(O)c(=O)ccn2N2CN1CCCCC2c1cccc2ccccc12` (centres unmarked) [Compound 10], 577 nM.
`O=C1c2c(O)c(=O)ccn2N2CN1CCCCC2c1cccc2ccc(F)cc12` (centres unmarked) [Compound 11] displayed an EC50 of 966 nM.
`O=C1c2c(O)c(=O)ccn2N2CN1CCCCC2c1ccc2ccccc2c1` (centres unmarked) [Compound 12] had an EC50 of 6290 nM.
`CC1(c2ccccc2)CCCCN2CN1n1ccc(=O)c(O)c1C2=O` (centres unmarked) [Compound 13] registered an EC50 of 310 nM.
For `O=C1c2c(O)c(=O)ccn2N2CN1CCCCCC2c1ccccc1` (centres unmarked) [Compound 14], the EC50 was 927 nM.
`CC1CCCC(c2ccccc2)N2CN1C(=O)c1c(O)c(=O)ccn12` (centres unmarked) [Compound 15] returned an EC50 of 460 nM.
For `O=C1c2c(O)c(=O)ccn2N2CN1C(C1CC1)CCCC2c1ccccc1` (centres unmarked) [Compound 16], a half-maximal response (EC50) required 164 nM.
On to `O=C1c2c(O)c(=O)ccn2N2CN1C/C=C\CC2c1ccccc1` (centres unmarked) [Compound 17], for which the half-maximal effective concentration (EC50) came out at 193 nM.
For `O=C1c2c(O)c(=O)ccn2N2CN1C/C=C\CC2c1cccc2ccc(F)cc12` (centres unmarked) [Compound 18] the value was 1460 nM.
In turn, `CC1/C=C\CC(c2ccccc2)N2CN1C(=O)c1c(O)c(=O)ccn12` (centres unmarked) [Compound 19] yielded an EC50 of 229 nM.
For `O=C1c2c(O)c(=O)ccn2N2CN1C(C1CC1)/C=C\CC2c1ccccc1` (centres unmarked) [Compound 20] the value was 171 nM; for `CC1N2CCCCC(c3ccccc3)N1n1ccc(=O)c(O)c1C2=O` (centres unmarked) [Compound 21], 98 nM.
Then `CC1N2CCCCCC(c3ccccc3)N1n1ccc(=O)c(O)c1C2=O` (centres unmarked) [Compound 22], with 228 nM; and `CC1CCN2CN(C(c3ccccc3)C1)n1ccc(=O)c(O)c1C2=O` (centres unmarked) [Compound 23], with 4410 nM.

A word on the EC50: it is the concentration that produces a half-maximal response.
